One may read the IC50 as the concentration that inhibits the measured activity by half.

human full length recombinant Mps-1 kinase, sequence (P33981 whole entry): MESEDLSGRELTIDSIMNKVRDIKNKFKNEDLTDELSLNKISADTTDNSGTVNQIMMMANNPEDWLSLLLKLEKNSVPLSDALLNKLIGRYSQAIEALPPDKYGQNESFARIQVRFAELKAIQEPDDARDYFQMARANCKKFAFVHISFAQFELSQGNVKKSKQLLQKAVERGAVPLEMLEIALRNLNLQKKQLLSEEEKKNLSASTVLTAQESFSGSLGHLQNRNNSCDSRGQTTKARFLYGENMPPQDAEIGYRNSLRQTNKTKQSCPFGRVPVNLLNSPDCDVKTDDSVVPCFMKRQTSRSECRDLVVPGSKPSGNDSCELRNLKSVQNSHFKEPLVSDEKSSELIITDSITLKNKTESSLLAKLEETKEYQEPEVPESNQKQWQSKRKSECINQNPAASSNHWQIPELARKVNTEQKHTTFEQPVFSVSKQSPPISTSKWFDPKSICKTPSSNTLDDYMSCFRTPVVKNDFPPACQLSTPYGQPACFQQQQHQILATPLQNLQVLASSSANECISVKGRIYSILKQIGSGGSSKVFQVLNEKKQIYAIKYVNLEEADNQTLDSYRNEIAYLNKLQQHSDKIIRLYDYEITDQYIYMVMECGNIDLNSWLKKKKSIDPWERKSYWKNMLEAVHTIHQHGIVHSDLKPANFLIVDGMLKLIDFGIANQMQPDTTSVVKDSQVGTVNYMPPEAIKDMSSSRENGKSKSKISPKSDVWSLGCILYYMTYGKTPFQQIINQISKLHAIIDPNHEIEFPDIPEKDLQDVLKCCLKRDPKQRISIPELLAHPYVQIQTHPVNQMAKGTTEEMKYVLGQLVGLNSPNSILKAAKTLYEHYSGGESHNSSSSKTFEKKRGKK

The assay concerns the target human full length recombinant Mps-1 kinase (Homo sapiens (Human), UniProt P33981). The experiment in a line: Mps-1 Kinase Assay (TR-FRET). The format is biochemical. As to conditions: 10 μM ATP, 1 μM biotinylated peptide substrate, 60 min at 22° C., read-out: Mps-1 Inhibition, IC50 in M. As to the method: The human kinase Mps-1 phosphorylates a biotinylated substrate peptide. Detection of the phosphorylated product is achieved by time-resolved fluorescence resonance energy transfer (TR-FRET) from Europium-labelled anti-phospho-Serine/Threonine antibody as donor to streptavidin labelled with cross-linked allophycocyanin (SA-XLent) as acceptor. Compounds are tested for their inhibition of the kinase activity.
N-terminally GST-tagged human full length recombinant Mps-1 kinase (purchased from Invitrogen, Karslruhe, Germany, cat. no PV4071) was used. As substrate for the kinase reaction a biotinylated peptide of the amino-acid sequence […] (C-terminus in amide form, purchased from Biosynthan GmbH, Berlin) was used.
The concentration of Mps-1 in the assay was adjusted to the activity of the enzyme lot and was chosen appropriate to have the assay in the linear range, typical enzyme concentrations were in the range of about 1 nM (final conc. in the 5 μl assay volume).
The resulting mixture was incubated 1 h at 22° C. to allow the binding of the phosphorylated peptide to the anti-phospho(Ser/Thr)-Europium-antibody. Subsequently the amount of phosphorylated substrate was evaluated by measurement of the resonance energy transfer from the Europium-labelled anti-phospho(Ser/Thr) antibody to the Streptavidin-XLent.
On the technique in general: Time-resolved FRET reads energy transfer from a long-lived donor to a nearby acceptor.
As for `CCOc1cc(N2CCOC2=O)ccc1Nc1nc2ccc(-c3ccc(C(=O)NCc4ccc(F)cc4)cc3)cn2n1` [Example 04.04, 4-(2-{[2-ethoxy-4-(2-oxo-1,3-oxazolidin-3-yl)phenyl]amino}[,2]triazolo[1,5-a]pyridin-6-yl)-N-(4-fluorobenzyl)benzamide], the IC50 is no more than 1 nM.

Regarding `COc1cc(C2=NCCO2)ccc1Nc1nc2ccc(-c3ccc(C(=O)NCc4ccc(F)cc4)cc3)cn2n1` [Example 04.05, 4-(2-{[4-(4,5-dihydro-1,3-oxazol-2-yl)-2-methoxyphenyl]amino}[,2]-triazolo[1,5-a]pyridin-6-yl)-N-(4-fluorobenzyl)benzamide], the IC50 was no more than 1 nM.

For the compound `COc1cc(C(=O)N2C[C@@H]3C[C@H]2CO3)ccc1Nc1nc2ccc(-c3ccc(C(=O)NCc4ccc(F)cc4)cc3)cn2n1` [Example 04.06, N-(4-fluorobenzyl)-4-[2-({2-methoxy-4-[(1S,4S)-2-oxa-5-azabicyclo[2.2.1]hept-5-ylcarbonyl]phenyl}amino)[,2]triazolo[1,5-a]pyridin-6-yl]benzamide], the IC50 is no more than 1 nM.

As to `COc1cc(C(=O)N2CC3(COC3)C2)ccc1Nc1nc2ccc(-c3ccc(C(=O)NCc4ccc(F)cc4)cc3)cn2n1` [Example 04.07, N-(4-fluorobenzyl)-4-(2-{[2-methoxy-4-(2-oxa-6-azaspiro[3.3]hept-6-ylcarbonyl)phenyl]amino}[,2]triazolo[1,5-a]pyridin-6-yl)benzamide], the IC50 was no more than 1 nM.

As to `COc1cc(C(=O)N2CC(O)C2)ccc1Nc1nc2ccc(-c3ccc(C(=O)NCc4ccc(F)cc4)cc3)cn2n1` [Example 04.08, N-(4-fluorobenzyl)-4-[2-({4-[(3-hydroxyazetidin-1-yl)carbonyl]-2-methoxyphenyl}amino)[,2]-triazolo[1,5-a]pyridin-6-yl]benzamide], the IC50 was no more than 1 nM.

Regarding `COc1cc(C(=O)N2CCS(=O)(=O)CC2)ccc1Nc1nc2ccc(-c3ccc(C(=O)NCc4ccc(F)cc4)cc3)cn2n1` [Example 04.09, 4-[2-({4-[(1,1-dioxidothiomorpholin-4-yl)carbonyl]-2-methoxyphenyl}amino)[,2]triazolo[1,5-a]pyridin-6-yl]-N-(4-fluorobenzyl)benzamide], the IC50 is no more than 1 nM.

Turning to `COc1cc(C(=O)N2CCC(O)CC2)ccc1Nc1nc2ccc(-c3ccc(C(=O)NCc4ccc(F)cc4)cc3)cn2n1` [Example 04.10, N-(4-fluorobenzyl)-4-[2-({4-[(4-hydroxypiperidin-1-yl)carbonyl]-2-methoxyphenyl}amino)[,2]triazolo[1,5-a]pyridin-6-yl]benzamide], the IC50 was no more than 1 nM.

For `COc1cc(C(=O)NC2COC2)ccc1Nc1nc2ccc(-c3ccc(C(=O)NCc4ccc(F)cc4)cc3)cn2n1` [Example 04.11, 4-[(6-{4-[(4-fluorobenzyl)carbamoyl]phenyl}[,2]triazolo[1,5-a]pyridin-2-yl)amino]-3-methoxy-N-(oxetan-3-yl)benzamide], the IC50 was no more than 1 nM.

For `CCOc1cc(C(=O)N2CC3(COC3)C2)ccc1Nc1nc2ccc(-c3ccc(C(=O)NCc4ccc(F)cc4)cc3)cn2n1` [Example 04.12, 4-(2-{[2-ethoxy-4-(2-oxa-6-azaspiro[3.3]hept-6-ylcarbonyl)phenyl]amino}[,2]-triazolo[1,5-a]pyridin-6-yl)-N-(4-fluorobenzyl)benzamide], the IC50 was no more than 1 nM.

Regarding `CCOc1cc(C(=O)N2CCN(C(C)=O)CC2)ccc1Nc1nc2ccc(-c3ccc(C(=O)NCc4ccc(F)cc4)cc3)cn2n1` [Example 04.13, 4-[2-({4-[(4-acetylpiperazin-1-yl)carbonyl]-2-ethoxyphenyl}amino)[,2]triazolo[1,5-a]pyridin-6-yl]-N-(4-fluorobenzyl)benzamide], the IC50 is no more than 1 nM.

For the compound `CCOc1cc(C(=O)N2CC(O)C2)ccc1Nc1nc2ccc(-c3ccc(C(=O)NCc4ccc(F)cc4)cc3)cn2n1` [Example 04.14, 4-[2-({2-ethoxy-4-[(3-hydroxyazetidin-1-yl)carbonyl]phenyl}amino)[,2]triazolo[1,5-a]pyridin-6-yl]-N-(4-fluorobenzyl)benzamide], the IC50 was no more than 1 nM.

For `O=C(NCc1ccc(F)cc1)c1ccc(-c2ccc3nc(Nc4ccc(C(=O)N5CC6(COC6)C5)cc4OCC(F)(F)F)nn3c2)cc1` [Example 04.15, N-(4-fluorobenzyl)-4-(2-{[4-(2-oxa-6-azaspiro[3.3]hept-6-ylcarbonyl)-2-(2,2,2-trifluoroethoxy)phenyl]amino}[,2]-triazolo[1,5-a]pyridin-6-yl)benzamide], the IC50 was no more than 1 nM.

Regarding `O=C(NCc1ccc(F)cc1)c1ccc(-c2ccc3nc(Nc4ccc(C(=O)N5CC(O)C5)cc4OCC(F)(F)F)nn3c2)cc1` [Example 04.16, N-(4-fluorobenzyl)-4-[2-({4-[(3-hydroxyazetidin-1-yl)carbonyl]-2-(2,2,2-trifluoroethoxy)phenyl}amino)[,2]triazolo[1,5-a]pyridin-6-yl]benzamide], the IC50 is no more than 1 nM.

Turning to `O=C(NCc1ccc(F)cc1)c1ccc(-c2ccc3nc(Nc4ccc(C(=O)N5CCOCC5)cc4OCC(F)(F)F)nn3c2)cc1` [Example 04.17, N-(4-fluorobenzyl)-4-(2-{[4-(morpholin-4-ylcarbonyl)-2-(2,2,2-trifluoroethoxy)phenyl]amino}[,2]-triazolo[1,5-a]pyridin-6-yl)benzamide], the IC50 is no more than 1 nM.

For the compound `COc1cc(N2CCN(C)CC2)ccc1Nc1nc2ccc(-c3ccc(C(=O)NCc4ccc(F)cc4)cc3)cn2n1` [Example 04.18, N-(4-fluorobenzyl)-4-(2-{[2-methoxy-4-(4-methylpiperazin-1-yl)phenyl]amino}[,2]triazolo[1,5-a]pyridin-6-yl)benzamide], the IC50 was no more than 1 nM.

For the compound `COc1cc(N2CCN(C(C)(C)C)CC2)ccc1Nc1nc2ccc(-c3ccc(C(=O)NCc4ccc(F)cc4)cc3)cn2n1` [Example 04.19, 4-(2-{[4-(4-tert-butylpiperazin-1-yl)-2-methoxyphenyl]amino}[,2]triazolo[1,5-a]pyridin-6-yl)-N-(4-fluorobenzyl)benzamide], the IC50 is no more than 1 nM.

For the compound `O=C(NCc1ccc(F)cc1)c1ccc(-c2ccc3nc(Nc4ccc(C(=O)N5CC6(COC6)C5)cc4F)nn3c2)cc1` [Example 04.20, N-(4-fluorobenzyl)-4-(2-{[2-fluoro-4-(2-oxa-6-azaspiro[3.3]hept-6-ylcarbonyl)phenyl]amino}[,2]triazolo[1,5-a]pyridin-6-yl)benzamide], the IC50 is no more than 1 nM.

In the case of `O=C(NCc1ccc(F)cc1)c1ccc(-c2ccc3nc(Nc4ccc(C(=O)N5CCOCC5)cc4F)nn3c2)cc1` [Example 04.21, N-(4-fluorobenzyl)-4-(2-{[2-fluoro-4-(morpholin-4-ylcarbonyl)phenyl]amino}[,2]-triazolo[1,5-a]pyridin-6-yl)benzamide], the IC50 is no more than 1 nM.

In the case of `O=C(NCc1ccc(F)cc1)c1ccc(-c2ccc3nc(Nc4ccc(C(=O)N5CCOCC5)cc4OCC(F)F)nn3c2)cc1` [Example 04.22, 4-(2-{[2-(2,2-difluoroethoxy)-4-(morpholin-4-ylcarbonyl)phenyl]amino}[,2]-triazolo[1,5-a]pyridin-6-yl)-N-(4-fluorobenzyl)benzamide], the IC50 is no more than 1 nM.

Regarding `O=C(NCc1ccc(F)cc1)c1ccc(-c2ccc3nc(Nc4ccc(C(=O)N5CCOCC5)cc4C(F)(F)F)nn3c2)cc1` [Example 04.23, N-(4-fluorobenzyl)-4-(2-{[4-(morpholin-4-ylcarbonyl)-2-(trifluoromethyl)phenyl]amino}[,2]triazolo[1,5-a]pyridin-6-yl)benzamide], the IC50 is no more than 1 nM.

These data come from patent US9555022B2, “Substituted triazolopyridines” (Bayer Intellectual Property GmbH, priority 2010, dated 2017).
